Counter-ions that a name gives are not always drawn.
Columns and labels:
[1] = Glucose clearance: acute in vivo model; parameters: species or system Sprague-Dawley rats; conditions: Rattus norvegicus, po, 0.5 h; 100 mg/kg intragastric, 30 min before i.p. glucose 1 g/kg; circulating glucose at 30 min; >100% indicates activity
Protocol: GLUCOSE CLEARANCE: ACUTE IN VIVO MODEL
The rationale for this test is that compounds which suppress insulin secretion should increase circulating glucose levels above those observed in controls following the administration of a high glucose load. Sprague-Dawley rats which range in weight from 150 to 180 grams after an overnight fast of 16 or 18 hours are given the test compound (100 mg/kg body weight) by intragastric administration 30 minutes before the intraperitoneal administration of glucose (1 g/kg body weight). Circulating glucose levels are determined immediately before glucose administration and 30, 60 and 90 minutes after glucose administration. Active compounds increase circulating glucose levels compared to controls. Since glucose levels peak at 30 minutes following glucose administration, the difference in circulating glucose levels between controls and treated rats at 30 minutes is used as an index of activity. The data are expressed as percent of control.

[2] = tested on: isolated perfused rat pancreas (insulin secretion); assay: Insulin-secretory activity in the isolated perfused rat pancreas; parameters: species or system rat (female Charles River); conditions: 16.7 mM glucose, index > 1 indicates suppression of insulin secretion
Protocol: DETERMINATION OF INSULIN-SECRETORY ACTIVITY IN THE ISOLATED PERFUSED RAT PANCREAS
Pancreases were obtained from young adult female Charles River rats weighing from 200-300 g. The animals were anesthesized with sodium pentobarbitol (45 mg/kg), injected intraperitoneally, and the pancreas with its intact vasculature was removed and connected to an extracorporeal perfusion apparatus.
The basic perfusion solution contained: 133 mM NaCl, 4.4 mM KCl, 2.5 mM MgSO4, 2.4 mM Ca gluconate, 1.5 mM KH2 PO4, 29.4 mM HaHCO3, 4% dextran and 0.2% bovine serum albumin and glucose as discussed below. The perfusion flow rate was kept constant at 4 ml/min. After a 15-20 minute equilibration period, the experimental protocol was begun. The pancreatic effluent was collected in either one or four-minute fractions.
The perfusion was run in the following sequence for each test compounds:
30 min 16.7 mM glucose--internal control
30 min 16.7 mM glucose and test compound
10 min 16.7 mM glucose--to check pancreas viability
The perfusion for the nontreated pancreas preparation was run as above, except that the test compound was omitted and replaced with perfusion solution.
Test compounds were dissolved in 90% ethanol or dimethylsulfoxide to a concentration of 25 mM and then diluted in the perfusion buffer to the desired concentration. The perfusion effluent was collected in one or four minute fractions--the samples were checked immediately, aliquoted for submission to radioimmunoassay and stored at -20° C. until the time of assay. The radioimmunoassay of insulin was carried out by a back-titration method using a pure rat insulin standard.
To assess the inhibitory activity of the test compounds, an inhibition index was calculated. The inhibition index is derived by comparing the insulin secretion response from treated versus nontreated pancreas preparations. For each preparation, a ratio of insulin secretion was calculated from the area under the insulin secretion curve of the first pulse of 16.7 mM glucose divided by the area under the curve of the second pulse of 16.7 mM glucose containing compound.

[3] = Antiobesity effects in obese Zucker rats; format: in vivo, genetically obese male Zucker rats; conditions: 14 days; for Relative Body Weight Gain Index: gain / days / dose (g/kg)
Protocol: ANTIOBESITY EFFECTS IN OBESE ZUCKER RATS
Genetically Obese Male Zucker rats were kept in temperature (22° C.) and light (12 hours light-dark cycle) regulated rooms. One week prior to the start of the experiment, the rats were transferred to individual wirebottomed cages and trained to eat a powdered chow diet (Ralston Purina Co., St. Louis, Mo.) ad libitum.
At the beginning of the experiment, the control group contributed to eat the chow diet and the experimental animals were given a chow diet containing drug. The amount of drug administered was calculated from the food intake per kg body weight for each experimental group. The age of the rats at the start of the drug treatment was two to three months. The period of treatment was 28 to 64 days. Food intake and body weights were recorded periodically (once each day to twice a week) throughout the duration of the study. Plasma samples for insulin and glucose determinations were taken from clipped tails. Carcass composition was determined at the end of the treatment period and, or comparative purposes, prior to the start of treatment.

[4] = Antiobesity effects in obese Zucker rats; format: in vivo, genetically obese male Zucker rats; conditions: 46 mg/kg, 14 days; gain / days / dose (g/kg)

Row | Compound | response vs control in vivo at 100 mg/kg [1] [%] | Perfused Pancreas Inhibition Index ([2]; 100 μM) | Perfused Pancreas Inhibition Index ([2]; 50 μM) | other results
1 | O=C(CCCc1cccnc1)N1CCC(C(c2ccccc2)c2ccccc2)CC1 [Example 10, 4-diphenylmethyl-1-[1-oxo-4-(3-pyridinyl)butyl]piperidine, 0.1 molar ethylacetate solvate] | 105 | 6.0 |  | 
2 | O=C(CCCc1cccnc1)N1CCC(C=C(c2ccccc2)c2ccccc2)CC1 [Example 11, 4-(2,2-diphenylethenyl)-1-[1-oxo-4-(3-pyridinyl)butyl]piperidine] | 99 |  | 7.6 | 
3 | O=C(CCCc1cccnc1)N1CCC(CC(c2ccccc2)c2ccccc2)CC1 [Example 14, 4-(2,2-diphenylethyl)-1-[1-oxo-4-(3-pyridinyl)butyl]piperidine] | 109 | 14.1 |  | 
4 | c1ccc(C(c2ccccc2)C2CCN(CCCCc3cccnc3)CC2)cc1 [Example 16, 3-[4-[4-(Diphenylmethyl)-1-piperidinyl]butyl]pyridine (1:1)-(Z)-2-butenedioate salt] | 120 | 5.3 |  | 
5 | C(=C(c1ccccc1)c1ccccc1)C1CCN(CCCCc2cccnc2)CC1 [Example 17, 3-[4-[4-(2,2-Diphenylethenyl)-1-piperidinyl]butyl]pyridine] | 101 | 1.7 |  | 
6 | Fc1ccc(C(=CC2CCN(CCCCc3cccnc3)CC2)c2ccc(F)cc2)cc1 [Example 18, 3-[4-[4-[2,2-bis(4-fluorophenyl)ethenyl]-1-piperidinyl]butyl]pyridine (1:1)-(E)-2-butenedioate salt] | 113 | 0.6 |  | 
7 | C(=C(c1ccccc1)c1ccccc1)C1CCN(CCCCCc2cccnc2)CC1 [Example 19, 3-[5-[4-(2,2-Diphenylethenyl)-1-piperidinyl]pentyl]pyridine (1:1)-(E)-2-butenedioate salt] | 97 | 24.1 |  | 
8 | c1ccc(C(CC2CCN(CCCCc3cccnc3)CC2)c2ccccc2)cc1 [Example 20, 3-[4-[4-(2,2-Diphenylethyl)-1-piperidinyl]butyl]pyridine] | 106 | 19.1 |  | 
9 | Fc1ccc(C(CC2CCN(CCCCc3cccnc3)CC2)c2ccc(F)cc2)cc1 [Example 21, 3-[4-[4-[2,2-Bis(4-fluorophenyl)ethyl]-1-piperidinyl]butyl]pyridine (1:1)-(E)-2-butenedioate salt] | 136 | 16.3 |  | 
10 | C(=C(c1ccccc1)c1ccccc1)C1CCN(CCCc2cccnc2)CC1 [Example 22, 3-[3-[4-(2,2-Diphenylethenyl)-1-piperidinyl]propyl]pyridine (1:1)-(E)-2-butenedioate salt] | 101 | 10.1 |  | 
11 | C(=C(c1ccccc1)c1ccccc1)C1CCN(CCCCCCc2cccnc2)CC1 [Example 23, 3-[6-[4-(2,2-diphenylethenyl)-1-piperidinyl]hexyl]pyridine (1:1)-(E)-2-butenedioate salt] | 144 | 2.6 |  | 
12 | C(=C(c1ccccc1)c1ccccc1)C1CCN(CCCCCCCc2cccnc2)CC1 [Example 24, 3-[7-[4-(2,2-Diphenylethenyl)-1-piperidinyl]heptyl]pyridine (1:1)-(E)-2-butenedioate salt hemihydrate] | 118 |  | 35 | 
13 | Fc1ccc(C(CC2CCN(CCCCCCc3cccnc3)CC2)c2ccc(F)cc2)cc1 [Example 26, 3-[6-[4-[2,2-Bis(4-fluorophenyl)ethyl]-1-piperidinyl]hexyl]pyridine (1:1)-(E)-2-butenedioate salt] | 125 |  | 2.0 | 
14 | c1ccc(C(CC2CCN(CCCCCCCCc3cccnc3)CC2)c2ccccc2)cc1 [Example 27, 3-[8-[4-(2,2-Diphenylethyl)-1-piperidinyl]octyl]pyridine] |  |  |  | Relative Body Weight Gain Index ([3]; 58 mg/kg): 94; Body Weight Gain (treated minus control) ([3]; 58 mg/kg, marked *): -76 g; Food Intake ([3]; 58 mg/kg, marked *): 70 % of control
15 | C(=C(c1ccccc1)c1ccccc1)C1CCN(CCCCc2cncnc2)CC1 [Example 28, 5-[4-[4-(2,2-diphenylethenyl)-1-piperidinyl]butyl]pyrimidine (1:1)-(E)-2-butenedioate salt] | 147 | 3.0 |  | 
16 | C(=C(c1ccccc1)c1ccccc1)C1CCN(CCCCCCc2cncnc2)CC1 [Example 29, 5-[6-[4-(2,2-Diphenylethenyl)-1-piperidinyl]hexyl]pyrimidine] | 104 | 10.4 |  | 
17 | C(=C(c1ccccc1)c1ccccc1)C1CCN(CCCCCCCCCc2cccnc2)CC1 [Example 31, 3-[9-[4-(2,2-Diphenylethenyl)-1-piperidinyl]nonyl]pyridine] | 107 |  | 2.7 | Relative Body Weight Gain Index ([3]; 41 mg/kg): 61; Body Weight Gain (treated minus control) ([3]; 41 mg/kg, marked *): -35 g; Food Intake ([3]; 41 mg/kg, marked *): 82 % of control
18 | C(=C(c1ccccc1)c1ccccc1)C1CCN(CCCCCCCCCCc2cccnc2)CC1 [Example 32, 3-[10-[4-(2,2-Diphenylethenyl)-1-piperidinyl]decyl]pyridine] | 100 |  |  | Food Intake ([3]; 46 mg/kg): 91 % of control; Body Weight Gain (treated minus control) ([3]; 46 mg/kg, marked *): -46 g; Relative Body Weight Gain Index [4]: 71
19 | O=C(CCCCCn1ccnc1)N1CCC(C=C(c2ccccc2)c2ccccc2)CC1 [Example 33, 4-(2,2-Diphenylethenyl)-1-[1-oxo-6-(1H-imidazo-1-yl)hexyl]piperidine] | 120 |  | 2.5 | 
20 | C(=C(c1ccccc1)c1ccccc1)C1CCN(CCCCCCn2ccnc2)CC1 [Example 34, 1-[6-[4-(2,2-Diphenylethenyl)-1-piperidinyl]hexyl]-1H-imidazole] | 101 |  | 1.1 | 

Reference: patent US4632925A, “N-substituted diphenylpiperidines and antiobesity use thereof” (Hoffmann-La Roche Inc., priority 1985, dated 1986)
